Like-named read-outs stand apart in the source and are kept apart here.
Columns and labels:
PBMCs = type: binding, human; details: for Kd: read-out: Kd (apparent dissociation constant), PBMCs
Erythrocytes = type: binding, human; details: for Kd: read-out: Kd (apparent dissociation constant), Erythrocytes
[1] = system: POPC and POPC:Chol (2:1) LUV, erythrocytes and PBMCs; type: binding, human
[2] = pH 7.4
[3] = pH 7.4; remark: listed apart in the source

In the case of “VIKI–GSGSG–C-dPEG4–Cys–(PEG4-bis-cholesterol) [VIKI-dPEG4-bisChol]”, the “Rmin, PBMCs” value (PBMCs) is reported as −0.24 ± 0.01, the Kd (PBMCs; 1.4% DMSO) is reported as 220 ± 50 nM and the “Rmin, Erythrocytes” value (Erythrocytes) is reported as −0.36 ± 0.01. It also gave a Kd (Erythrocytes; 1.4% DMSO) of 70 ± 20 nM.
In the case of “VIKI–GSGSG–C-dPEG4–Cys-(PEG4-bis-tocopherol) [VIKI-dPEG4-bisToco]”, the “Rmin, PBMCs” value (PBMCs) is reported as −0.27 ± 0.01, the Kd (PBMCs) is reported as 180 ± 40 nM and the “Rmin, Erythrocytes” value (Erythrocytes) is reported as −0.22 ± 0.01. For the same compound, the Kd (Erythrocytes) was 90 ± 30 nM.
For “VIKI–GSGSG–C-dPEG4–Cys–cholesterol [VIKI-dPEG4-Chol]”, the “Rmin, PBMCs” value (PBMCs) was −0.23 ± 0.02, the Kd (PBMCs; 1.4% DMSO) was 300 ± 120 nM and the “Rmin, Erythrocytes” value (Erythrocytes) was −0.33 ± 0.01. The Kd (Erythrocytes; 1.4% DMSO) was 130 ± 30 nM.
With “VIKI–GSGSG–C-dPEG4–Cys–tocopherol [VIKI-dPEG4-Toco]” the “Rmin, PBMCs” value (PBMCs) was −0.29 ± 0.02, the Kd (PBMCs) was 510 ± 120 nM and the “Rmin, Erythrocytes” value (Erythrocytes) was −0.30 ± 0.01. It also gave a Kd (Erythrocytes) of 140 ± 30 nM.
With tocopherol the “change in membrane dipole potential (di-8-ANEPPS)” value [1] was “no changes in dipole potential were observed”.
With “VIKI–GSGSG-C-dPEG4–Cys–(CH2CONH2) [VIKI-dPEG4]” the “secondary structure by CD” value [2] was “random coil” and the “maximum fluorescence emission wavelength, free in solution” value [3] was 356 nm.
In the case of `CC(C)CCC[C@@H](C)[C@H]1CC[C@H]2[C@@H]3CC=C4C[C@@H](O)CC[C@]4(C)[C@H]3CC[C@]12C` [cholesterol], the “change in membrane dipole potential (di-8-ANEPPS)” value [1] is reported as “no changes in dipole potential were observed”.
